Assay results: article PMC6005271

Tests used:
[1] = Double Williamson ether macrocyclisation of preformed bipyridine precursor with a bis-electrophile, high dilution (previous syntheses); conditions: the molecule shown is the open-chain precursor; 25-membered ring; DMF; 72.0 h; cited from earlier work
[2] = Ni-mediated reductive aryl-aryl (2-halopyridine) homo/cross-coupling forming the 2,2'-bipyridine C-C bond; [Ni(PPh3)2Br2] 1 eq, PPh3 2 eq, Mn 10 eq, NEt4I 1 eq; slow addition of dihalide over 4 h; conditions: DMF, 50.0 mM, 50.0 °C

## Oc1ccc(-c2cccc(-c3cccc(CCCc4ccc(OCc5ccc(CBr)cc5)cc4)n3)n2)cc1
[1]
  ring closure, isolated yield: 6%

## c1cc2nc(c1)-c1cccc(n1)-c1ccc(cc1)OCc1ccc(cc1)COc1ccc(cc1)CCC2
[2]; from Brc1cccc(CCCc2ccc(OCc3ccc(COc4ccc(-c5cccc(Br)n5)cc4)cc3)cc2)n1, 25-membered ring, 5.0 h
  ring closure, isolated yield: 41%

## c1cc2nc(c1)-c1cccc(n1)COCc1ccc(cc1)OCCCCOc1ccc(cc1)COC2 [1b -> 2b]
[2]; from Brc1cccc(COCc2ccc(OCCCCOc3ccc(COCc4cccc(Br)n4)cc3)cc2)n1, 26-membered ring, 5.0 h
  ring closure, isolated yield: 70%

## c1cc2nc(c1)-c1cccc(n1)-c1ccc(cc1)OCCCCCCCOc1ccc(cc1)CCC2 [1g -> 2g (DMF-THF 3:1)]
[2]; from Brc1cccc(CCCc2ccc(OCCCCCCCOc3ccc(-c4cccc(Br)n4)cc3)cc2)n1, 26-membered ring, 5.0 h
  ring closure, isolated yield: 66%

## c1cc2nc(c1)-c1cccc(n1)OCCc1ccc(cc1)OCCCCOc1ccc(cc1)CCO2
[2]; from Brc1cccc(OCCc2ccc(OCCCCOc3ccc(CCOc4cccc(Br)n4)cc3)cc2)n1, 26-membered ring, 5.0 h
  ring closure, isolated yield: 65%

## c1cc2nc(c1)-c1cccc(n1)CCCc1ccc(cc1)OCCCCOc1ccc(cc1)CCC2 [1a -> 2a]
[2]; from Brc1cccc(CCCc2ccc(OCCCCOc3ccc(CCCc4cccc(Br)n4)cc3)cc2)n1, 26-membered ring, 5.0 h
  ring closure, isolated yield: 71%

## c1cc2cc(c1)-c1cccc(n1)CCCc1ccc(cc1)OCCCCOc1ccc(cc1)COC2
[2]; from Brc1cccc(CCCc2ccc(OCCCCOc3ccc(COCc4cccc(I)c4)cc3)cc2)n1, 26-membered ring, 5.0 h
  ring closure, isolated yield: 24%

## c1cc2nc(c1)-c1cccc(n1)COCc1ccc(cc1)OCCCCOc1ccc(cc1)CCC2 [1f -> 2f]
[2]; from Brc1cccc(CCCc2ccc(OCCCCOc3ccc(COCc4cccc(Br)n4)cc3)cc2)n1, 26-membered ring, 5.0 h
  ring closure, isolated yield: 76%

## c1cc2nc(c1)-c1cccc(n1)COCc1ccc(cc1)OCCCCCCCCCCOc1ccc(cc1)COC2 [1c -> 2c]
[2]; from Brc1cccc(COCc2ccc(OCCCCCCCCCCOc3ccc(COCc4cccc(Br)n4)cc3)cc2)n1, 32-membered ring, 5.0 h
  ring closure, isolated yield: 67%

## c1cc2cc(c1)-c1cccc(n1)CCCc1ccc(cc1)OCCCCOc1ccc(cc1)COC2 [1i(Br) dibromo precursor -> 2i]
[2]; from Brc1cccc(COCc2ccc(OCCCCOc3ccc(CCCc4cccc(Br)n4)cc3)cc2)c1, 26-membered ring
  ring closure, isolated yield: 16%

## c1cc2nc(c1)-c1cccc(n1)COCc1ccc(cc1)OCCCCOc1ccc(cc1)COC2 [S4 (dichloro analogue of 1b) -> 2b]
[2]; from Clc1cccc(COCc2ccc(OCCCCOc3ccc(COCc4cccc(Cl)n4)cc3)cc2)n1, 26-membered ring
  ring closure, isolated yield: 56%

## c1cc2nc(c1)-c1cccc(n1)-c1ccc(cc1)OCCOCCOCCOCCOc1ccc-2cc1 [1e -> 2e]
[2]; from Brc1cccc(-c2ccc(OCCOCCOCCOCCOc3ccc(-c4cccc(Br)n4)cc3)cc2)n1, 27-membered ring, 5.0 h
  ring closure, isolated yield: 73%
